Laboratory results as given in PubChem BioAssay (NCI).
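Growth conditions: 96-well plates. Treatment: test compound, 48 hours, 5 concentrations. Analysis: linear interpolation between bracketing concentrations; unreached endpoints set to highest concentration. Definition used: TGI = concentration required for complete inhibition of growth.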

How the values were obtained:
Experiment in all cases: NCI-60 cell line screen, 48 h
SN12C renal = system: SN12C renal
NCI-H23 lung = system: NCI-H23 lung
OVCAR-4 ovarian = system: OVCAR-4 ovarian
SK-MEL-5 melanoma = system: SK-MEL-5 melanoma
SK-MEL-2 melanoma = system: SK-MEL-2 melanoma
MOLT-4 leukemia = system: MOLT-4 leukemia
OVCAR-8 ovarian = system: OVCAR-8 ovarian
OVCAR-3 ovarian = system: OVCAR-3 ovarian
NCI/ADR-RES ovarian = system: NCI/ADR-RES ovarian
CAKI-1 renal = system: CAKI-1 renal
CCRF-CEM leukemia = system: CCRF-CEM leukemia
TK-10 renal = system: TK-10 renal
BT-549 breast = system: BT-549 breast
DU-145 prostate = system: DU-145 prostate
MCF7 breast = system: MCF7 breast
COLO 205 colon = system: COLO 205 colon
M14 melanoma = system: M14 melanoma
NCI-H226 lung = system: NCI-H226 lung
K-562 leukemia = system: K-562 leukemia

Measured: TGI

CCOP(=O)(OCC)[C@H]1OC(C)(C)O[C@@H]1CO
not listed: NCI-H226 lung | K-562 leukemia
> 100 µM: all other assays above

C/C(=N\NC(=S)N(C)CCN(C)C(=S)N/N=C(\C)c1ccccn1)c1ccccn1
14.8 µM: OVCAR-4 ovarian
12.1 µM: CCRF-CEM leukemia
2.02 µM: NCI/ADR-RES ovarian
29.1 µM: K-562 leukemia
9.53 µM: OVCAR-3 ovarian
> 100 µM: M14 melanoma
2.16 µM: SK-MEL-5 melanoma
24.4 µM: SK-MEL-2 melanoma
7.32 µM: OVCAR-8 ovarian
13.1 µM: DU-145 prostate
3.48 µM: NCI-H226 lung
28.5 µM: NCI-H23 lung
0.912 µM: COLO 205 colon
11.8 µM: CAKI-1 renal
46.3 µM: MOLT-4 leukemia
6.91 µM: SN12C renal
18.3 µM: MCF7 breast
7.75 µM: TK-10 renal

O=S(=O)(c1ccccc1)C1(CCC2OCCO2)C=CC2(CC1)OCCO2 (centres undefined)
not listed: SK-MEL-2 melanoma | CAKI-1 renal
> 100 µM: all other assays above

Cc1nc(C(N)=S)sc1C(=O)CC(=O)C(=O)Nc1nc2ccccc2[nH]1
not listed: CCRF-CEM leukemia | DU-145 prostate | COLO 205 colon
> 100 µM: all other assays above

O=c1[nH]c(-n2[nH]c3c(c2=O)CCCC3)nc(O)c1-c1ccccc1
not listed: OVCAR-3 ovarian | MCF7 breast
> 100 µM: all other assays above

CCC1C(=O)C(O)[C@H]2[C@@H]3C(O)CC4=CC(=O)CC[C@]4(C)[C@H]3CC[C@]12C (some centres undefined)
not listed: OVCAR-4 ovarian | BT-549 breast | NCI-H226 lung
> 50 µM: all other assays above

COC(=O)c1c2c(cc3c1CC1(Cc4cc5c(cc4C1=O)CCC5)C3)CCC2 (centres undefined)
54.4 µM: SK-MEL-5 melanoma
not listed: NCI/ADR-RES ovarian
> 100 µM: all other assays above

CN(C)Cc1cc(C=O)cc(CN(C)C)c1O
67.4 µM: NCI-H23 lung
not listed: SK-MEL-2 melanoma | CAKI-1 renal | M14 melanoma
> 100 µM: all other assays above

CC(C)=CCN1c2ccc(Cl)cc2NC(=O)CC1C (centres undefined)
56.9 µM: COLO 205 colon
36.1 µM: M14 melanoma
87.9 µM: OVCAR-4 ovarian
32.2 µM: SK-MEL-5 melanoma
46.9 µM: NCI-H226 lung
87.7 µM: TK-10 renal
45.6 µM: MCF7 breast
36 µM: OVCAR-3 ovarian
74.9 µM: NCI-H23 lung
39.6 µM: OVCAR-8 ovarian
59.5 µM: BT-549 breast
58 µM: SN12C renal
43.8 µM: CAKI-1 renal
39.5 µM: SK-MEL-2 melanoma
not listed: NCI/ADR-RES ovarian
> 100 µM: all other assays above

CC(C)SC(NC(=O)C1C(C)(C)CCC1(C)C)C(=O)O (centres undefined)
not listed: OVCAR-4 ovarian | MOLT-4 leukemia | OVCAR-3 ovarian | CAKI-1 renal | BT-549 breast
> 100 µM: all other assays above

Cn1/c(=N\N=C(\CNCCO)[C@@H](O)[C@@H]2OC(c3ccccc3)OC[C@H]2O)sc2ccccc21 (some centres undefined)
47.4 µM: CCRF-CEM leukemia
30.9 µM: COLO 205 colon
35.1 µM: DU-145 prostate
38.6 µM: CAKI-1 renal
33.6 µM: MOLT-4 leukemia
35.2 µM: SN12C renal
26.5 µM: M14 melanoma
32.7 µM: OVCAR-3 ovarian
37.5 µM: NCI-H23 lung
37 µM: OVCAR-8 ovarian
34.2 µM: MCF7 breast
> 100 µM: NCI/ADR-RES ovarian
36.3 µM: TK-10 renal
28.5 µM: SK-MEL-5 melanoma
37.2 µM: BT-549 breast
52.8 µM: OVCAR-4 ovarian
33.3 µM: SK-MEL-2 melanoma | K-562 leukemia

Cc1ccc(/C=C2\Cc3cccc(C)c3C2=O)c(C(=O)O)c1
52.9 µM: OVCAR-4 ovarian
48.8 µM: CAKI-1 renal
not listed: SK-MEL-2 melanoma | NCI/ADR-RES ovarian | MCF7 breast | COLO 205 colon
> 100 µM: all other assays above

CN(CC(=O)O)c1ncc2c(n1)-c1ccccc1OC2
not listed: OVCAR-3 ovarian | BT-549 breast | NCI-H226 lung
> 100 µM: all other assays above

Cc1ccc(-c2nc(-c3cnccn3)n(C3OC(CO)C(O)C(O)C3O)n2)cc1 (centres undefined)
not listed: SK-MEL-2 melanoma | CAKI-1 renal | NCI-H226 lung
> 100 µM: all other assays above

CC(C)(C)OC(=O)C1CC[C@@H](CC(=O)Oc2ccc([N+](=O)[O-])cc2)N1 (some centres undefined)
not listed: BT-549 breast | K-562 leukemia
> 100 µM: all other assays above

O=C(c1cc2c(c3ccccc13)NCCN=C2C(F)(F)F)C(F)(F)F
35.4 µM: K-562 leukemia
31 µM: SK-MEL-5 melanoma
79.6 µM: M14 melanoma
78 µM: TK-10 renal
80.9 µM: OVCAR-3 ovarian
44.1 µM: SK-MEL-2 melanoma
47.1 µM: NCI-H226 lung
38 µM: MOLT-4 leukemia
not listed: SN12C renal | BT-549 breast | COLO 205 colon
> 100 µM: all other assays above

CCOC(=O)C1=CC(C)(C(=O)OCC)Nc2c(nc(OC)[nH]c2=O)N1 (centres undefined)
not listed: BT-549 breast
> 10 µM: all other assays above

CN(C)/C=N/NC(=O)/C(C#N)=C/N(C)C
not listed: BT-549 breast
> 100 µM: all other assays above

COC(=O)C1C2CC3C1C3C2C(=O)OC (centres undefined)
not listed: BT-549 breast
> 100 µM: all other assays above

[O-][n+]1onc2c1/C(=N/O)CCC2
not listed: BT-549 breast
> 100 µM: all other assays above

O=c1[nH]c(=O)n(C2CC(O)C(CO)O2)cc1OCC1CCCCC1 (centres undefined)
not listed: SK-MEL-2 melanoma
> 100 µM: all other assays above

CN1CC[C@]2(c3cccc(O)c3)CC(=O)/C(=C/c3ccc(Cl)c(Cl)c3)[C@@H]1C2
6.76 µM: NCI/ADR-RES ovarian
2.96 µM: COLO 205 colon
1.1 µM: K-562 leukemia
4.35 µM: OVCAR-8 ovarian
9.41 µM: MCF7 breast
4.33 µM: NCI-H23 lung
2.32 µM: CAKI-1 renal
4.7 µM: NCI-H226 lung
0.71 µM: MOLT-4 leukemia
3.01 µM: DU-145 prostate
3.48 µM: TK-10 renal
3.1 µM: SK-MEL-5 melanoma
3.14 µM: BT-549 breast
2.85 µM: CCRF-CEM leukemia
2.29 µM: SN12C renal
3.08 µM: M14 melanoma

O=c1c2cc([N+](=O)[O-])ccc2n2n1CCCC2
not listed: SK-MEL-2 melanoma | BT-549 breast | MCF7 breast
> 100 µM: all other assays above

CCOC(=O)c1ccc(Nc2nc3ccccc3nc2C(=O)OCC)cc1
not listed: NCI-H226 lung
> 100 µM: all other assays above

Clc1ccc(-c2ccc(-c3nn4c(CNc5ccccc5)nnc4s3)o2)c(Cl)c1
not listed: MCF7 breast
> 100 µM: all other assays above

CN1Cc2cc3c(cc2-c2ccccc21)OCO3
not listed: NCI/ADR-RES ovarian | CAKI-1 renal | BT-549 breast | DU-145 prostate | MCF7 breast | NCI-H226 lung
> 100 µM: all other assays above

CCCCCCCCCCCCCCCCOCC(CCl)OP(=O)(O)OP(=O)(O)OCC1OC(n2ccc(N)nc2=O)C(O)C1O (centres undefined)
not listed: DU-145 prostate
> 100 µM: all other assays above

COC(=O)CSC(=S)Nc1nnc(NC(=S)SCOC(C)=O)n1C(=S)SCC(=O)OC
not listed: SK-MEL-2 melanoma | OVCAR-8 ovarian | TK-10 renal | NCI-H226 lung
> 100 µM: all other assays above
